Data from patent publication US9266829B2, “Quinone compounds and their uses for the treatment of cancer” (Onco-NX Limited, priority 2012, dated 2016).

How the values were obtained:
[1] = tested on: MDA-MB-468-MOCK; test: In vivo hollow fibre assay, MDA-MB-468-MOCK; details: fibres at i.p. site; i.p. dosing days 3-6; nude mice; p<0.01
Method: The activity of Es5 (4.65) was evaluated in vivo against 3 cancer cell lines H460, MDA-MB-468-NQ01 and MDA-MB-468-MOCK using the in vivo hollow fibre assay (HFA), with fibres implanted at both intraperitoneal (i.p.) and subcutaneous (s.c.) sites. Es5 and the control agent Doxorubicin were administered as multiple doses by intraperitoneal injection (i.p.) on days 3, 4, 5 & 6 at 0.5 mg/kg/day and 2.5 mg/kg/day respectively.
Three human tumour cell lines were selected for analysis: H460 NSCLC (from ICT) and two breast carcinoma lines MDA-MB-468-NQ01 and MDA-MB-468-MOCK (both supplied by Onco-NX). Cells were cultured in RPMI 1640 cell culture medium supplemented with 1 mM sodium pyruvate, 2 mM L-glutamine and 10% foetal bovine serum (all from Sigma), and maintained as monolayer cultures at 37° C. in a humidified 5% CO2 environment.
Female Balb/C immunodeficient nude mice aged 6-8 weeks were used (Harlan UK, Blackthorn, UK). Mice were kept in cages housed in isolation cabinets in an air-conditioned room with regular alternating cycles of light and darkness. They received Teklad 2018 diet (Harlan, Blackthorn, UK) and water ad libitum. […]
Mice were sacrificed on day 7 post-implantation, fibres removed, and cell survival analysed using a modified MTT assay, comparing absorbances seen for the treated groups with the corresponding untreated control group. […]

[2] = tested on: MDA NQ01; test: IC50 by MTT assay on NQ01 cells; assay type: cell-based, human
[3] = tested on: serum esterase; test: Degradation by serum esterase (hydrolysis in serum); assay type: in vitro ADME
Text: (§1) The cleavage of Es5 by esterase and cell extracts and its activation were investigated.

[4] = tested on: DT-diaphorase null MDA468; test: DNA damage, Comet assay, DT-diaphorase null MDA468 cells; assay type: cell-based, human
Method: DNA damage was measured using the Comet assay to investigate the effect of Es5 on the comet head and tail intensities following treatment of MDA468NQ01 and the DT-diaphorase null MDA468 cell lines. […] Without wishing to be bound by any particular theory, the inventors believe that this must arise by a different mechanism such as 2×one electron reductions, rather than the 2 electron reduction that occurs with DT-diaphorase.

[5] = tested on: DT-diaphorase null MDA 468 cells; test: Apoptosis by Annexin V binding, DT-diaphorase null MDA 468 cells; assay type: cell-based, human
Method: Based on the method described in Martin et al. (Journal of Experimental Medicine. 182, 1545-1556. 1995), the induction of apoptosis caused by the compounds of the present invention was determined.

[6] = physchem; assay type: physicochemical; details: buffer, pH 7
[7] = tested on: porcine brain extracts; test: Cleavage by porcine brain extracts; assay type: in vitro ADME; details: in words; result of porcine esterase repeated
Text: as §1

CC(=O)OCCCC1=C(N2CC2)C(=O)C(C)=C(N2CC2)C1=O [Es5, Acetic Acid 3-(2,5-bis-aziridin-1-yl-4-methyl-3,6-dioxo-cyclohexa-1,4-dienyl)-propyl ester]
cell survival compared to the untreated control, MDA-MB-468-MOCK, i.p. site [1]: significant efficacy
IC50 ([2]; Homo sapiens, MTT assay): 0.23 nM
selectivity towards cells that express DT-diaphorase ([2]; IC50 values, MTT assay): excellent selectivity
MDA468 to NQ01 differential ([2]; ratio of IC50 values): > 80 fold
Degradation by serum esterase, t90 ([3]; T90 = time taken to degrade to 90% of starting concentration): t90 90 mins
half-life ([3]; serum, read-out: hydrolysis in serum, t1/2): 1.67 h
Comet assay tail intensity (DNA cross-linking) ([4]; DT-diaphorase deficient cell line, compared to H2O2 alone): did not reduce tail intensity
Comet assay, DNA cross-linking after 6 hours of incubation ([4]; DT-diaphorase null cell line, 6 hours): evidence of cross-linking
apoptosis (Annexin V binding) at 2 hours ([5]; 2 hours): no death is seen
apoptosis (Annexin V binding) after 4 hrs ([5]; after 4 hrs): reduced level of apoptosis
half-life at 50 μM [6]: > 24 h
cleavage by porcine brain extracts [7]: rapidly cleaved
